Data reported in US20250213555A1, “SUBSTITUTED TETRAHYDROFURAN ANALOGS AS MODULATORS OF SODIUM CHANNELS” (VERTEX PHARMACEUTICALS INCORPORATED, priority 2021, published 2025).

Each molecule was assayed against human Nav 1.8 (Homo sapiens, UniProt Q9Y5Y9) (assay: E-VIPR assay detecting and measuring Nav inhibition properties). Details: HEK cells expressing a truncated form of human Nav 1.8; compound numbers without "*" (not marked as run in the presence of human serum); read-out: measured IC50 value in the E-VIPR Assay.
Type: cell-based
Summary of the method: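 Nav inhibition was read by E-VIPR: cells were electrically stimulated while coumarin/oxonol FRET emissions were recorded. Cells were HEK expressing a truncated human Nav 1.8 and co-transduced with KIR2.1, and were assayed in 25% final human serum.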

Sequence of human Nav 1.8 (Q9Y5Y9 126-399 limits assumed): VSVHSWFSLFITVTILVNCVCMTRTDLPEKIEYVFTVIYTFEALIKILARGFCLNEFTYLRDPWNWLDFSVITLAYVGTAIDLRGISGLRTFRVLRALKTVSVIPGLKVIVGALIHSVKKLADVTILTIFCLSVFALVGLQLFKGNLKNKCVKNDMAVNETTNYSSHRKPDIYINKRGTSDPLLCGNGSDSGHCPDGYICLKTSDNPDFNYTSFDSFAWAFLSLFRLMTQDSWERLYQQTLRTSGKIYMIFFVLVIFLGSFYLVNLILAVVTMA
Sequence of human Nav 1.8 (Q9Y5Y9 660-890 limits assumed): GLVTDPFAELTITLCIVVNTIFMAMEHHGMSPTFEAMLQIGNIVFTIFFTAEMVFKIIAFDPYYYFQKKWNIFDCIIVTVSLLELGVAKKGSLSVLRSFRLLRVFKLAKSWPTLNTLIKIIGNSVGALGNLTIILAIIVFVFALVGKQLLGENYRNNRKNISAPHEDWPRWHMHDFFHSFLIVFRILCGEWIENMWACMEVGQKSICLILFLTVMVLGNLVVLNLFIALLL
Sequence of human Nav 1.8 (Q9Y5Y9 1148-1722 limits assumed): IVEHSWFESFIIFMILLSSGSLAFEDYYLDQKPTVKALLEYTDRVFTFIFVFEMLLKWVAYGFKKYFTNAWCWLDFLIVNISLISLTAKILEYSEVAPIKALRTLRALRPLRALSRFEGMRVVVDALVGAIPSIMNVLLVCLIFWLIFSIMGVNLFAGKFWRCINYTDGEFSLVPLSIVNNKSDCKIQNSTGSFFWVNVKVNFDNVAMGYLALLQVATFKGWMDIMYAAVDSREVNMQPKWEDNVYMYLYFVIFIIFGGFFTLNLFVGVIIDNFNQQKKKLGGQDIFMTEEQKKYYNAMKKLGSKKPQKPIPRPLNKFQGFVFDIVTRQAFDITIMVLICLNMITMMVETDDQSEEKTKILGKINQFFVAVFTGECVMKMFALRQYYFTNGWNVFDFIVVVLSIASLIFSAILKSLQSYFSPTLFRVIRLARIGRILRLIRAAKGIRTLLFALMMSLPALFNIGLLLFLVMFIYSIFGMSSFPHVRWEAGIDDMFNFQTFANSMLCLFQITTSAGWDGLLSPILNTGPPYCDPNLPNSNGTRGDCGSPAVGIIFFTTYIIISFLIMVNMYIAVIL

Row | Structure (SMILES) | IC50 [µM]
1 | C[C@H]1[C@@H](c2ccc(F)c(F)c2OC2CC(=NO)C2)[C@H](C(=O)Nc2ccnc(C(N)=O)c2)O[C@@]1(C)C(F)(F)F (stereo partly drawn) [Compound 192, 4-((2R,3S,4S,5R)-3-(3,4-difluoro-2-(3-(hydroxyimino)cyclobutoxy)phenyl)-4,5-dimethyl-5-(trifluoromethyl)tetrahydrofuran-2-carboxamido)picolinamide] | < 0.01
2 | CNC(=O)c1cc(NC(=O)[C@@H]2O[C@@](C)(C(F)(F)F)[C@@H](C)[C@H]2c2ccc(F)c(F)c2OC[C@@H](C)N2CC3(COC3)C2)ccn1 [Compound 41, 4-((2R,3S,4S,5R)-3-(2-((R)-2-(2-oxa-6-azaspiro[3.3]heptan-6-yl)propoxy)-3,4-difluorophenyl)-4,5-dimethyl-5-(trifluoromethyl)tetrahydrofuran-2-carboxamido)-N-methylpicolinamide] | 0.1 to 1
3 | C[C@H]1[C@@H](c2ccc(F)c(F)c2OC2CC(O)C2)[C@H](C(=O)Nc2ccnc(C(N)=O)c2)O[C@@]1(C)C(F)(F)F (stereo partly drawn) [Compound 163, 4-((2R,3S,4S,5R)-3-(3,4-difluoro-2-(3-hydroxycyclobutoxy)phenyl)-4,5-dimethyl-5-(trifluoromethyl)tetrahydrofuran-2-carboxamido)picolinamide] | < 0.01
4 | COc1c([C@H]2[C@H](C(=O)Nc3cc(C(=O)N4CCN(C)CC4)ncn3)O[C@@](C)(C(F)(F)F)[C@H]2C)ccc(F)c1F [Compound 22, (2R,3S,4S,5R)-3-(3,4-difluoro-2-methoxyphenyl)-4,5-dimethyl-N-(6-(4-methylpiperazine-1-carbonyl)pyrimidin-4-yl)-5-(trifluoromethyl)tetrahydrofuran-2-carboxamide] | 0.1 to 1
5 | C[C@H]1[C@@H](c2ccc(F)c(F)c2OC2CC(C)(O)C2)[C@H](C(=O)Nc2ccnc(C(N)=O)c2)O[C@@]1(C)C(F)(F)F (stereo partly drawn) [Compound 174, 4-((2R,3S,4S,5R)-3-(3,4-difluoro-2-(3-hydroxy-3-methylcyclobutoxy)phenyl)-4,5-dimethyl-5-(trifluoromethyl)tetrahydrofuran-2-carboxamido)picolinamide] | < 0.01
6 | C[C@H]1[C@@H](c2ccc(F)c(F)c2OCCN2C3COCC2C3)[C@H](C(=O)Nc2ccnc(C(N)=O)c2)O[C@@]1(C)C(F)(F)F [Compound 131, 4-((2R,3S,4S,5R)-3-(2-(2-(3-oxa-6-azabicyclo[3.1.1]heptan-6-yl)ethoxy)-3,4-difluorophenyl)-4,5-dimethyl-5-(trifluoromethyl)tetrahydrofuran-2-carboxamido)picolinamide] | 0.01 to 0.1
7 | COc1c([C@H]2[C@H](C(=O)Nc3ccnc(C(=O)N[C@H]4CN(C)CC[C@H]4OC)c3)O[C@@](C)(C(F)(F)F)[C@H]2C)ccc(F)c1F [Compound 285, 4-((2R,3S,4S,5R)-3-(3,4-difluoro-2-methoxyphenyl)-4,5-dimethyl-5-(trifluoromethyl)tetrahydrofuran-2-carboxamido)-N-((3S,4R)-4-methoxy-1-methylpiperidin-3-yl)picolinamide] | 0.1 to 1
8 | COc1c([C@H]2[C@H](C(=O)Nc3ccnc(C(=O)N4C[C@H]5CC[C@@H](C4)NC5)c3)O[C@@](C)(C(F)(F)F)[C@H]2C)ccc(F)c1F [Compound 244, (2R,3S,4S,5R)-N-(2-((1S,5S)-3,6-diazabicyclo[3.2.2]nonane-3-carbonyl)pyridin-4-yl)-3-(3,4-difluoro-2-methoxyphenyl)-4,5-dimethyl-5-(trifluoromethyl)tetrahydrofuran-2-carboxamide] | < 0.01
9 | COc1c([C@H]2[C@H](C(=O)Nc3ccnc(C(=O)N[C@H]4CN(C)C[C@@H]4OC)c3)O[C@@](C)(C(F)(F)F)[C@H]2C)ccc(F)c1F [Compound 281, 4-((2R,3S,4S,5R)-3-(3,4-difluoro-2-methoxyphenyl)-4,5-dimethyl-5-(trifluoromethyl)tetrahydrofuran-2-carboxamido)-N-((3S,4S)-4-methoxy-1-methylpyrrolidin-3-yl)picolinamide] | 0.01 to 0.1
10 | COc1c([C@H]2[C@H](C(=O)Nc3ccnc(C(=O)N4CC5CC(C4)O5)c3)O[C@@](C)(C(F)(F)F)[C@H]2C)ccc(F)c1F [Compound 218, (2R,3S,4S,5R)-N-(2-(6-oxa-3-azabicyclo[3.1.1]heptane-3-carbonyl)pyridin-4-yl)-3-(3,4-difluoro-2-methoxyphenyl)-4,5-dimethyl-5-(trifluoromethyl)tetrahydrofuran-2-carboxamide] | < 0.01

Next, values leading:

Row | IC50 [µM] | Structure (SMILES)
11 | 0.01 to 0.1 | COc1c([C@H]2[C@H](C(=O)Nc3ccnc(C(=O)N4CCN(C)CC4)n3)O[C@@](C)(C(F)(F)F)[C@H]2C)ccc(F)c1F [Compound 11, (2R,3S,4S,5R)-3-(3,4-difluoro-2-methoxyphenyl)-4,5-dimethyl-N-(2-(4-methylpiperazine-1-carbonyl)pyrimidin-4-yl)-5-(trifluoromethyl)tetrahydrofuran-2-carboxamide]
12 | 0.01 to 0.1 | C=C(COC)COc1c([C@H]2[C@H](C(=O)Nc3ccnc(C(N)=O)c3)O[C@@](C)(C(F)(F)F)[C@H]2C)ccc(F)c1F [Compound 135]
13 | < 0.01 | C[C@H]1[C@@H](c2ccc(F)c(F)c2OCC(=NO)C2CCC2)[C@H](C(=O)Nc2ccnc(C(N)=O)c2)O[C@@]1(C)C(F)(F)F [Compound 191, 4-((2R,3S,4S,5R)-3-(2-(2-cyclobutyl-2-(hydroxyimino)ethoxy)-3,4-difluorophenyl)-4,5-dimethyl-5-(trifluoromethyl)tetrahydrofuran-2-carboxamido)picolinamide]
14 | < 0.01 | COc1c([C@H]2[C@H](C(=O)Nc3ccnc(C(=O)N4CCC(N(C)C)C4)c3)O[C@@](C)(C(F)(F)F)[C@H]2C)ccc(F)c1F (single isomer, unassigned) [Compound 264, rel-(2R*,3S*,4S*,5R*)-3-(3,4-difluoro-2-methoxyphenyl)-N-(2-(3-(dimethylamino)pyrrolidine-1-carbonyl)pyridin-4-yl)-4,5-dimethyl-5-(trifluoromethyl)tetrahydrofuran-2-carboxamide]
15 | < 0.01 | COCc1c(F)ccc([C@H]2[C@H](C(=O)Nc3ccnc(C(N)=O)c3)O[C@@](C)(C(F)(F)F)[C@H]2C)c1OC (single isomer, unassigned) [Compound 140]
16 | < 0.01 | COc1c([C@H]2[C@H](C(=O)Nc3ccnc(C(=O)N(C)[C@H]4CN(C)C[C@@H]4OC)c3)O[C@@](C)(C(F)(F)F)[C@H]2C)ccc(F)c1F [Compound 286, 4-((2R,3S,4S,5R)-3-(3,4-difluoro-2-methoxyphenyl)-4,5-dimethyl-5-(trifluoromethyl)tetrahydrofuran-2-carboxamido)-N-((3S,4S)-4-methoxy-1-methylpyrrolidin-3-yl)-N-methylpicolinamide]
17 | < 0.01 | C[C@H]1[C@@H](c2ccc(F)c(F)c2OCCN2C[C@@H]3C[C@H]2CO3)[C@H](C(=O)Nc2ccnc(C(N)=O)c2)O[C@@]1(C)C(F)(F)F (relative stereo) [Compound 46, rel-4-((2R*,3S*,4S*,5R*)-3-(2-(2-((1S,4S)-2-oxa-5-azabicyclo[2.2.1]heptan-5-yl)ethoxy)-3,4-difluorophenyl)-4,5-dimethyl-5-(trifluoromethyl)tetrahydrofuran-2-carboxamido)picolinamide]
18 | < 0.01 | C=C(COc1c([C@H]2[C@H](C(=O)Nc3ccnc(C(N)=O)c3)O[C@@](C)(C(F)(F)F)[C@H]2C)ccc(F)c1F)C(F)(F)F [Compound 75, 4-((2R,3S,4S,5R)-3-(3,4-difluoro-2-((2-(trifluoromethyl)allyl)oxy)phenyl)-4,5-dimethyl-5-(trifluoromethyl)tetrahydrofuran-2-carboxamido)picolinamide]
19 | < 0.01 | C[C@H]1CN(CCOc2c([C@H]3[C@H](C(=O)Nc4ccnc(C(N)=O)c4)O[C@@](C)(C(F)(F)F)[C@H]3C)ccc(F)c2F)CCO1 [Compound 111, 4-((2R,3S,4S,5R)-3-(3,4-difluoro-2-(2-((S)-2-methylmorpholino)ethoxy)phenyl)-4,5-dimethyl-5-(trifluoromethyl)tetrahydrofuran-2-carboxamido)picolinamide]
20 | < 0.01 | C[C@H]1[C@@H](c2ccc(F)c(F)c2OCC2COC2)[C@H](C(=O)Nc2ccnc(C(N)=O)c2)O[C@@]1(C)C(F)(F)F [Compound 70, 4-((2R,3S,4S,5R)-3-(3,4-difluoro-2-(oxetan-3-ylmethoxy)phenyl)-4,5-dimethyl-5-(trifluoromethyl)tetrahydrofuran-2-carboxamido)picolinamide]
21 | 0.01 to 0.1 | COc1c([C@H]2[C@H](C(=O)Nc3ccnc(C(=O)N4CCNCC4)n3)O[C@@](C)(C(F)(F)F)[C@H]2C)ccc(F)c1F [Compound 19, (2R,3S,4S,5R)-3-(3,4-difluoro-2-methoxyphenyl)-4,5-dimethyl-N-(2-(piperazine-1-carbonyl)pyrimidin-4-yl)-5-(trifluoromethyl)tetrahydrofuran-2-carboxamide]
22 | < 0.01 | COc1c([C@H]2[C@H](C(=O)Nc3ccnc(C(=O)N4CCN(C)CC4)c3)O[C@@](C)(C(F)(F)F)[C@H]2C)ccc(F)c1F [Compound 8, (2R,3S,4S,5R)-3-(3,4-difluoro-2-methoxy-phenyl)-4,5-dimethyl-N-[2-(4-methylpiperazine-1-carbonyl)-4-pyridyl]-5-(trifluoromethyl)tetrahydrofuran-2-carboxamide]
23 | < 0.01 | C[C@H]1[C@@H](c2ccc(F)c(F)c2OCc2nccn2C)[C@H](C(=O)Nc2ccnc(C(N)=O)c2)O[C@@]1(C)C(F)(F)F [Compound 61, 4-((2R,3S,4S,5R)-3-(3,4-difluoro-2-((1-methyl-1H-imidazol-2-yl)methoxy)phenyl)-4,5-dimethyl-5-(trifluoromethyl)tetrahydrofuran-2-carboxamido)picolinamide]
24 | < 0.01 | C[C@H]1[C@@H](c2ccc(F)c(F)c2OCC2(O)CC2)[C@H](C(=O)Nc2ccnc(C(N)=O)c2)O[C@@]1(C)C(F)(F)F [Compound 159, 4-((2R,3S,4S,5R)-3-(3,4-difluoro-2-((1-hydroxycyclopropyl)methoxy)phenyl)-4,5-dimethyl-5-(trifluoromethyl)tetrahydrofuran-2-carboxamido)picolinamide]
